Source: Sander's compilation of Henry's law constants (doi:10.1021/es020599y)

assay: Henry solubility constant Hcp at 298.15 K (mol/(m3 Pa)); conditions: reference: Bamford et al. (2002)

Row | Structure (SMILES) | Henry solubility constant Hcp
1 | Clc1cc(-c2cc(Cl)c(Cl)c(Cl)c2Cl)c(Cl)c(Cl)c1Cl [2,2',3,3',4,4',5,5'-octachlorobiphenyl] | 0.1
2 | Clc1ccc(-c2c(Cl)c(Cl)cc(Cl)c2Cl)c(Cl)c1Cl [2,2',3,3',4,5',6'-heptachlorobiphenyl] | 0.021
3 | Clc1cc(-c2c(Cl)ccc(Cl)c2Cl)c(Cl)c(Cl)c1Cl [2,2',3,3',4,5,6'-heptachlorobiphenyl] | 0.022
4 | Clc1cccc(-c2ccc(Cl)c(Cl)c2Cl)c1Cl [2,2',3,3',4-pentachlorobiphenyl] | 0.027
5 | Clc1cc(Cl)c(Cl)c(-c2c(Cl)ccc(Cl)c2Cl)c1 [2,2',3,3',5,6'-hexachlorobiphenyl] | 0.015
6 | Clc1cc(Cl)c(Cl)c(-c2cccc(Cl)c2Cl)c1 [2,2',3,3',5-pentachlorobiphenyl] | 0.023
7 | Clc1ccc(Cl)c(-c2c(Cl)ccc(Cl)c2Cl)c1Cl [2,2',3,3',6,6'-hexachlorobiphenyl] | 0.009
8 | Clc1cccc(-c2cccc(Cl)c2Cl)c1Cl [2,2',3,3'-tetrachlorobiphenyl] | 0.036
9 | Clc1cc(Cl)c(-c2c(Cl)ccc(Cl)c2Cl)cc1Cl [2,2',3,4',5',6-hexachlorobiphenyl] | 0.015
10 | Clc1cc(Cl)c(-c2cccc(Cl)c2Cl)cc1Cl [2,2',3,4',5'-pentachlorobiphenyl] | 0.023
11 | Clc1cc(Cl)c(Cl)c(-c2cc(Cl)c(Cl)cc2Cl)c1 [2,2',3,4',5,5'-hexachlorobiphenyl] | 0.017
12 | Clc1ccc(-c2c(Cl)ccc(Cl)c2Cl)c(Cl)c1 [2,2',3,4',6-pentachlorobiphenyl] | 0.019
13 | Clc1ccc(-c2cccc(Cl)c2Cl)c(Cl)c1 [2,2',3,4'-tetrachlorobiphenyl] | 0.028
14 | Clc1cc(Cl)c(-c2c(Cl)cc(Cl)c(Cl)c2Cl)cc1Cl [2,2',3,4,4',5',6-heptachlorobiphenyl] | 0.017
15 | Clc1cc(Cl)c(-c2cc(Cl)c(Cl)c(Cl)c2Cl)c(Cl)c1 [2,2',3,4,4',5,6'-heptachlorobiphenyl] | 0.017
16 | Clc1ccc(-c2cc(Cl)c(Cl)c(Cl)c2Cl)c(Cl)c1 [2,2',3,4,4',5-hexachlorobiphenyl] | 0.045
17 | Clc1ccc(-c2ccc(Cl)c(Cl)c2Cl)c(Cl)c1 [2,2',3,4,4'-pentachlorobiphenyl] | 0.023
18 | Clc1ccc(Cl)c(-c2cc(Cl)c(Cl)c(Cl)c2Cl)c1 [2,2',3,4,5,5'-hexachlorobiphenyl] | 0.02
19 | Clc1ccc(-c2c(Cl)cccc2Cl)c(Cl)c1Cl [2,2',3,4,6'-pentachlorobiphenyl] | 0.022
20 | Clc1ccc(Cl)c(-c2c(Cl)ccc(Cl)c2Cl)c1 [2,2',3,5',6-pentachlorobiphenyl] | 0.021
21 | Clc1cccc(-c2c(Cl)cccc2Cl)c1Cl [2,2',3,6'-tetrachlorobiphenyl] | 0.03
22 | Clc1ccccc1-c1cccc(Cl)c1Cl [2,2',3-trichlorobiphenyl] | 0.042
23 | Clc1ccc(-c2cc(Cl)c(Cl)cc2Cl)c(Cl)c1 [2,2',4,4',5-pentachlorobiphenyl] | 0.021
24 | Clc1ccc(-c2cc(Cl)ccc2Cl)c(Cl)c1 [2,2',4,5'-tetrachlorobiphenyl] | 0.027
25 | Clc1cc(Cl)c(-c2ccccc2Cl)cc1Cl [2,2',4,5-tetrachlorobiphenyl] | 0.027
26 | Clc1ccc(-c2ccccc2Cl)c(Cl)c1 [2,2',4-trichlorobiphenyl] | 0.033

Row | Structure (SMILES) | Henry solubility constant Hcp
27 | Clc1ccccc1-c1c(Cl)cccc1Cl [2,2',6-trichlorobiphenyl] | 0.033
28 | Clc1ccccc1-c1ccccc1Cl [2,2'-dichlorobiphenyl] | 0.046
29 | Clc1ccc(Cl)c(-c2ccc(Cl)c(Cl)c2)c1 [2,3',4',5-tetrachlorobiphenyl] | 0.033
30 | Clc1ccc(-c2ccccc2Cl)cc1Cl [2,3',4'-trichlorobiphenyl] | 0.036
31 | Clc1cc(Cl)c(-c2cc(Cl)c(Cl)c(Cl)c2)cc1Cl [2,3',4,4',5,5'-hexachlorobiphenyl] | 0.027
32 | Clc1cc(Cl)c(-c2ccc(Cl)c(Cl)c2)c(Cl)c1 [2,3',4,4',6-pentachlorobiphenyl] | 0.015
33 | Clc1cccc(-c2ccc(Cl)cc2Cl)c1 [2,3',4-trichlorobiphenyl] | 0.033
34 | Clc1cccc(-c2cc(Cl)ccc2Cl)c1 [2,3',5-trichlorobiphenyl] | 0.035
35 | Clc1cccc(-c2ccccc2Cl)c1 [2,3'-dichlorobiphenyl] | 0.043
36 | Clc1cc(-c2c(Cl)c(Cl)cc(Cl)c2Cl)cc(Cl)c1Cl [2,3,3',4',5,5',6-heptachlorobiphenyl] | 0.032
37 | Clc1cc(Cl)c(Cl)c(-c2ccc(Cl)c(Cl)c2)c1 [2,3,3',4',5-pentachlorobiphenyl] | 0.043
38 | Clc1ccc(-c2c(Cl)ccc(Cl)c2Cl)cc1Cl [2,3,3',4',6-pentachlorobiphenyl] | 0.023
39 | Clc1ccc(-c2cccc(Cl)c2Cl)cc1Cl [2,3,3',4'-tetrachlorobiphenyl] | 0.038
40 | Clc1cc(-c2ccc(Cl)c(Cl)c2Cl)cc(Cl)c1Cl [2,3,3',4,4',5'-hexachlorobiphenyl] | 0.034
41 | Clc1ccc(-c2cc(Cl)c(Cl)c(Cl)c2Cl)cc1Cl [2,3,3',4,4',5-hexachlorobiphenyl] | 0.029
42 | Clc1ccc(-c2c(Cl)cc(Cl)c(Cl)c2Cl)cc1Cl [2,3,3',4,4',6-hexachlorobiphenyl] | 0.021
43 | Clc1ccc(-c2cc(Cl)cc(Cl)c2Cl)cc1 [2,3,4',5-tetrachlorobiphenyl] | 0.025
44 | Clc1ccc(-c2c(Cl)ccc(Cl)c2Cl)cc1 [2,3,4',6-tetrachlorobiphenyl] | 0.025
45 | Clc1ccc(Cl)c(-c2ccccc2)c1Cl [2,3,6-trichlorobiphenyl] | 0.033
46 | Clc1cccc(-c2ccccc2)c1Cl [2,3-dichlorobiphenyl] | 0.043
47 | Clc1ccc(-c2cc(Cl)ccc2Cl)cc1 [2,4',5-trichlorobiphenyl] | 0.034
48 | Clc1ccc(-c2ccccc2)c(Cl)c1 [2,4-dichlorobiphenyl] | 0.037
49 | Clc1cc(-c2cc(Cl)c(Cl)c(Cl)c2)cc(Cl)c1Cl [3,3',4,4',5,5'-hexachlorobiphenyl] | 0.047
50 | Clc1ccc(-c2cccc(Cl)c2)cc1 [3,4'-dichlorobiphenyl] | 0.049
51 | Clc1ccc(-c2cc(Cl)c(Cl)c(Cl)c2)cc1 [3,4,4',5-tetrachlorobiphenyl] | 0.041
